Measurements reported in patent publication US20130035361A1, “USE OF ERGOTHIONEINE AS A PRESERVATIVE IN FOODS AND BEVERAGES” (priority 2007, published 2013).
≈ marks a conversion by molar mass, not a printed value.

Experiments:
[1] = ERGO concentration found in Pinot noir wines after 18 months of bottle storage; assay type: physicochemical; details: for ERGO Found: Pinot noir wine, after 18 months bottle storage
Excerpt: According to the invention, sulfur dioxide was replaced in whole or in part with L-ergothioneine in Pinot noir wines at bottling.

[2] = Stability over time in food and beverages; assay type: physicochemical; details: stored over a period of several years
[3] = cited from earlier work
[4] = per one unit of L-Ergothioneine; cited from earlier work
[5] = tested on: LPO formation in mouse liver; details: cited from earlier work
liver tissue of rats = details: exogenous L-ergothioneine; cited from earlier work

Row | SMILES | ERGO Found ([1]; SO2 added 30 mg/L, ERGO added 0 mg/L at bottling) | ERGO Found ([1]; SO2 added 70 mg/L, ERGO added 0 mg/L at bottling) | ERGO Found ([1]; SO2 added 0 mg/L, ERGO added 10 mg/L at bottling) | ERGO Found ([1]; SO2 added 0 mg/L, ERGO added 30 mg/L at bottling) | ERGO Found ([1]; SO2 added 0 mg/L, ERGO added 50 mg/L at bottling) | ERGO Found ([1]; SO2 added 0 mg/L, ERGO added 70 mg/L at bottling) | presence of ergothioneine in the wine after storage ([1]; Pinot noir wines, SO2 replaced in whole or in part at bottling, after 18 months of storage) | stability over time [2] | water solubility [3] | solubility limit ([3]; room temperature) | units of Vitamin E equivalent to one unit [4] | LPO formation [5] | decomposition of existing LPO [5] | lipid peroxidation by toxic compounds (liver tissue of rats)
1 | O=S=O [SO2, sulfur dioxide, reference compound] | 7.3 mg/L | 7.5 mg/L |  |  |  |  |  |  |  |  |  |  |  | 
2 | C[N+](C)(C)[C@@H](Cc1c[nH]c(=S)[nH]1)C(=O)[O-] [L-ergothioneine] |  |  | 8.8 mg/L | 29.8 mg/L | 55.4 mg/L | 81.2 mg/L | still present in the wine | very stable over time | readily water soluble | 900 mM (≈ 206 mg/mL) | ~7000 units of Vitamin E | inhibited LPO formation | enhanced the decomposition of existing LPO | prevent lipid peroxidation
